Series [1] addresses Inhibitor of nuclear factor kappa-B kinase subunit beta (Homo sapiens) (UniProt O14920). Description: Inhibition of IKKbeta (unknown origin) at 30 uM.
Series [2] in a line: Tmax in mouse at 4 mg/kg, po. Format: ADME, organism-based. On the set-up: dose 4 mg/kg, route oral. The note with it: in vivo.
The target of series [3] is RAC-beta serine/threonine-protein kinase (Homo sapiens) (UniProt P31751). Nature of the series: Inhibition of AKT2 (unknown origin) at 30 uM.
Series [4] in a line: Oral bioavailability in mouse at 4 mg/kg. In kind it is ADME, organism-based. Conditions: in vivo.
Series [5] addresses Mitogen-activated protein kinase kinase kinase 7 (Homo sapiens) (UniProt O43318). Nature of the series: Inhibition of TAK1 (unknown origin) at 30 uM.
The target of series [6] is Mitogen-activated protein kinase kinase kinase 8 (Homo sapiens) (UniProt P41279). Nature of the series: Inhibition of MAP3K8 (unknown origin) at 30 uM.
Series [7] deals with Mitogen-activated protein kinase 11 (Homo sapiens) (UniProt Q15759). Nature of the series: Inhibition of p38beta (unknown origin) at 30 uM.
Series [8] deals with Phosphatidylinositol 4,5-bisphosphate 3-kinase catalytic subunit delta isoform (Homo sapiens) (UniProt O00329). Nature of the series: Inhibition of PI3Kdelta (unknown origin) at 30 uM.
Series [9] addresses Phosphatidylinositol 4,5-bisphosphate 3-kinase catalytic subunit beta isoform (Homo sapiens) (UniProt P42338). Nature of the series: Inhibition of PI3Kbeta (unknown origin) at 30 uM.
Series [10] has as its target Inhibitor of nuclear factor kappa-B kinase subunit epsilon (Homo sapiens) (UniProt Q14164). Nature of the series: Inhibition of IKKepsilon (unknown origin) at 30 uM.
Series [11] has as its target Mitogen-activated protein kinase 3 (Homo sapiens) (UniProt P27361). Description: Inhibition of ERK1 (unknown origin) at 30 uM.
For series [12], the target named is Dual specificity mitogen-activated protein kinase kinase 6 (Homo sapiens) (UniProt P52564). Description: Inhibition of MKK6 (unknown origin) at 30 uM.
For the next series, the species on record is Homo sapiens. Nature of the series: Inhibition of PKA (unknown origin) at 30 uM.
In series [13] the target is Protein kinase C beta type (Homo sapiens) (UniProt P05771). Description: Inhibition of PKCbeta (unknown origin) at 30 uM.
For series [14], the target named is Mitogen-activated protein kinase 8 (Homo sapiens) (UniProt P45983). Description: Inhibition of JNK1 (unknown origin) at 30 uM.
In a further series the test system is Mus musculus. Description: Antiinflammatory activity in collagen-induced arthritis mouse model at 30 mg/kg, po qd administered every other day for 20 days relative to vehicle-treated control. In kind it is functional. The note with it: 480 h.
Series [15] addresses Mitogen-activated protein kinase 13 (Homo sapiens) (UniProt O15264). Description: Inhibition of p38delta (unknown origin) at 30 uM.
The target of series [16] is Rho-associated protein kinase 1 (Homo sapiens) (UniProt Q13464). Nature of the series: Inhibition of ROCK1 (unknown origin) at 30 uM.
Series [17] concerns the target Phosphatidylinositol 4,5-bisphosphate 3-kinase catalytic subunit alpha isoform (Homo sapiens) (UniProt P42336). Nature of the series: Inhibition of PI3Kalpha (unknown origin) at 30 uM.
A short description of series [18]: Terminal half life in mouse at 2 mg/kg, iv. On the set-up: dose 2 mg/kg, route intravenous. Format: ADME, organism-based. Conditions: in vivo, read-out: beta t1/2 (converted).
Series [19] has as its target Tyrosine-protein kinase JAK3 (Homo sapiens) (UniProt P52333). Nature of the series: Inhibition of JAK3 (unknown origin) at 30 uM.

Active and inactive are the calls of the source. The rule behind the calls is not given here.

Sequence of Protein kinase C beta type (Homo sapiens) (P05771 2-671 limits assumed): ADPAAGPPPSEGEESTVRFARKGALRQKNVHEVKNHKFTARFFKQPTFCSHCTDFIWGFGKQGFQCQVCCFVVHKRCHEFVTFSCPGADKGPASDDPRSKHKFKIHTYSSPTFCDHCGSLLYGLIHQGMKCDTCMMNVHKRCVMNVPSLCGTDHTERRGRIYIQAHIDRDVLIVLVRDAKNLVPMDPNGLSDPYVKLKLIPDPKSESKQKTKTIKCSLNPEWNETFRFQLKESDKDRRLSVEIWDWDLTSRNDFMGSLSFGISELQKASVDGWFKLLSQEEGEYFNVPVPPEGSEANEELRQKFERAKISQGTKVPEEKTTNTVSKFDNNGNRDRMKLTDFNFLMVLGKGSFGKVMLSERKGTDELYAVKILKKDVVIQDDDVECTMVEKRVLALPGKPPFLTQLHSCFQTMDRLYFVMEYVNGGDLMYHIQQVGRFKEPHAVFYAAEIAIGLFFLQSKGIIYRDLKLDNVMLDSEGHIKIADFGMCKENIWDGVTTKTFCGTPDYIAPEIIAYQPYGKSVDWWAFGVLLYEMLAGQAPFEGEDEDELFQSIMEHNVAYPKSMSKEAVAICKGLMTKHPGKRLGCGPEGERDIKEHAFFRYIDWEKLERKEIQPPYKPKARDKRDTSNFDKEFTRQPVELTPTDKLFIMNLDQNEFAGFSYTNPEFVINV
Sequence of Phosphatidylinositol 4,5-bisphosphate 3-kinase catalytic subunit beta isoform (Homo sapiens) (P42338 whole entry, looked up, canonical isoform): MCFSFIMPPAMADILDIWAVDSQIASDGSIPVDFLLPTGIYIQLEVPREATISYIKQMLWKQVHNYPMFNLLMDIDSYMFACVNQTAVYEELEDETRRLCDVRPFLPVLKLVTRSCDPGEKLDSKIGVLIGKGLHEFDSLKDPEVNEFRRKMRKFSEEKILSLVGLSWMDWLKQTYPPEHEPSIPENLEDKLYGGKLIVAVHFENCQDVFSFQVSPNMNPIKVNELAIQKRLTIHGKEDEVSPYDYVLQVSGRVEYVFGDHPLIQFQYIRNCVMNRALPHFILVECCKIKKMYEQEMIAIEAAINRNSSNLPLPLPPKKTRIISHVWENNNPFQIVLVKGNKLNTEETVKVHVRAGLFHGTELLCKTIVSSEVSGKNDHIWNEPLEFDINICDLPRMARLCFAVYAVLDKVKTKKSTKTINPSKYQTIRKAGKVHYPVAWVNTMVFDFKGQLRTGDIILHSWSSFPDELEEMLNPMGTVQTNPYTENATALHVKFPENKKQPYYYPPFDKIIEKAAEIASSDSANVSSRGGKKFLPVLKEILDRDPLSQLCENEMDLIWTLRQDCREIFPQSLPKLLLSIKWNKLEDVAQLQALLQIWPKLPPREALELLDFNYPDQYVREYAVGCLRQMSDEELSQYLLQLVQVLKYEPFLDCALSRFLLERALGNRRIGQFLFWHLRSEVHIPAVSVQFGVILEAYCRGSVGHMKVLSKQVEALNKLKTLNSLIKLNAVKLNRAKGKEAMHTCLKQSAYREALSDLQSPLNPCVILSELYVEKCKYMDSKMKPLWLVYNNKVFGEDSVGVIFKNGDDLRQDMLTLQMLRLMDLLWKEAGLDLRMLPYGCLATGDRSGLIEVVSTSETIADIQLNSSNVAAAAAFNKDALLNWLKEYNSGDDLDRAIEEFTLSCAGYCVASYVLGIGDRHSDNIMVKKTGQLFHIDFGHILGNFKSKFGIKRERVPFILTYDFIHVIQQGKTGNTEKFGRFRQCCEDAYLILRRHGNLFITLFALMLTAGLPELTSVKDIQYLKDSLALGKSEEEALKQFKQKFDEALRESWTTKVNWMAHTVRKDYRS
Sequence of Mitogen-activated protein kinase 11 (Homo sapiens) (Q15759 whole entry, canonical isoform): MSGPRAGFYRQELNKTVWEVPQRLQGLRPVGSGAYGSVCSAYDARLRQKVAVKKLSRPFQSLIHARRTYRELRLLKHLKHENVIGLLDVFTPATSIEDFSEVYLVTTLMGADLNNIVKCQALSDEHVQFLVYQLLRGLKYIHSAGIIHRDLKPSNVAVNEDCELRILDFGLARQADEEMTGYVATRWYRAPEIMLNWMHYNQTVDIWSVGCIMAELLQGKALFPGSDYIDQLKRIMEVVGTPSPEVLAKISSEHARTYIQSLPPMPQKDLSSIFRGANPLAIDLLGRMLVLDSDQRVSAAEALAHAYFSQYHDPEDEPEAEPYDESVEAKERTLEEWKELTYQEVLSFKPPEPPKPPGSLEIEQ
Sequence of Mitogen-activated protein kinase 3 (Homo sapiens) (P27361 whole entry): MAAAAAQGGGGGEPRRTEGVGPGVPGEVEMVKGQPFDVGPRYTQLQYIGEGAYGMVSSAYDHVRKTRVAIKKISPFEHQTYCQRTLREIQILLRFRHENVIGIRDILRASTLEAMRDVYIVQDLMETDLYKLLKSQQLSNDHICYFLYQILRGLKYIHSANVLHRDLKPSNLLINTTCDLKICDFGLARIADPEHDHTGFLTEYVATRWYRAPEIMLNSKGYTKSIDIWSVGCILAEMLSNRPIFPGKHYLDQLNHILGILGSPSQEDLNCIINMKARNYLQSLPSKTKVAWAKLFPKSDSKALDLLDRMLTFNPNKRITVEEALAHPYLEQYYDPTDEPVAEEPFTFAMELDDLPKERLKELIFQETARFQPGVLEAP
Sequence of Rho-associated protein kinase 1 (Homo sapiens) (Q13464 2-1354 limits assumed): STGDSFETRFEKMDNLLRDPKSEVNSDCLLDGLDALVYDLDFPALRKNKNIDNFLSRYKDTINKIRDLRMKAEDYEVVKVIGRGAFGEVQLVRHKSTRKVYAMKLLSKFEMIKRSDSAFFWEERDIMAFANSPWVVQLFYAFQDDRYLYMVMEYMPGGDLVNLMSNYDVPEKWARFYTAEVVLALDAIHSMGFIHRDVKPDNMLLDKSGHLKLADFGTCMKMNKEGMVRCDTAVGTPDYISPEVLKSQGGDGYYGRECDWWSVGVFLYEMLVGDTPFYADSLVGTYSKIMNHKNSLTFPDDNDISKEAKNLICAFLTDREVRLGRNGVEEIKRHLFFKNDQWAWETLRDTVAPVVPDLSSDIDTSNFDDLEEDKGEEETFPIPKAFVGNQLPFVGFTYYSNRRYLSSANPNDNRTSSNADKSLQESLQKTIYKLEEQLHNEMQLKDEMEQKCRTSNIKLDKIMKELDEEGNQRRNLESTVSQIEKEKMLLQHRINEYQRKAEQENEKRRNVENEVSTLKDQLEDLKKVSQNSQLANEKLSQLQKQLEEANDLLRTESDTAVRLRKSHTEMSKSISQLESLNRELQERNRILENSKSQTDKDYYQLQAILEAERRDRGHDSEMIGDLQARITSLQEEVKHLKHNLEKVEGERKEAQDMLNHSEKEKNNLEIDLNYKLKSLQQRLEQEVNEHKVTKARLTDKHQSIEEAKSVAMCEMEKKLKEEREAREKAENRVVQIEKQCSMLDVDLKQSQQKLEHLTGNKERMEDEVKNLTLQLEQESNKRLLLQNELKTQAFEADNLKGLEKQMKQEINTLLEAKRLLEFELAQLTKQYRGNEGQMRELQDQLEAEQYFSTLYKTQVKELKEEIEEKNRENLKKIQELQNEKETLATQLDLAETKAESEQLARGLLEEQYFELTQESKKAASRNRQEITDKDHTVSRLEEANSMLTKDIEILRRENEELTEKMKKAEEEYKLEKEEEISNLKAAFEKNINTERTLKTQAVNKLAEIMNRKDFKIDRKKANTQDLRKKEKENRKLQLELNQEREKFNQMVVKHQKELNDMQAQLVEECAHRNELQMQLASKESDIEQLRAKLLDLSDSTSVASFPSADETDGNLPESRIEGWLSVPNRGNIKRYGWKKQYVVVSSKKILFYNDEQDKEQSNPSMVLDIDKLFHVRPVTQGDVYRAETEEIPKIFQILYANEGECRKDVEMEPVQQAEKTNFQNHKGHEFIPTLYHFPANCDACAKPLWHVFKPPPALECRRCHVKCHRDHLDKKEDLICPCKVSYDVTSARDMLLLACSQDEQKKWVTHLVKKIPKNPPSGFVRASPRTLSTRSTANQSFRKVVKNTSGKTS
Sequence of Mitogen-activated protein kinase kinase kinase 7 (Homo sapiens) (O43318 whole entry): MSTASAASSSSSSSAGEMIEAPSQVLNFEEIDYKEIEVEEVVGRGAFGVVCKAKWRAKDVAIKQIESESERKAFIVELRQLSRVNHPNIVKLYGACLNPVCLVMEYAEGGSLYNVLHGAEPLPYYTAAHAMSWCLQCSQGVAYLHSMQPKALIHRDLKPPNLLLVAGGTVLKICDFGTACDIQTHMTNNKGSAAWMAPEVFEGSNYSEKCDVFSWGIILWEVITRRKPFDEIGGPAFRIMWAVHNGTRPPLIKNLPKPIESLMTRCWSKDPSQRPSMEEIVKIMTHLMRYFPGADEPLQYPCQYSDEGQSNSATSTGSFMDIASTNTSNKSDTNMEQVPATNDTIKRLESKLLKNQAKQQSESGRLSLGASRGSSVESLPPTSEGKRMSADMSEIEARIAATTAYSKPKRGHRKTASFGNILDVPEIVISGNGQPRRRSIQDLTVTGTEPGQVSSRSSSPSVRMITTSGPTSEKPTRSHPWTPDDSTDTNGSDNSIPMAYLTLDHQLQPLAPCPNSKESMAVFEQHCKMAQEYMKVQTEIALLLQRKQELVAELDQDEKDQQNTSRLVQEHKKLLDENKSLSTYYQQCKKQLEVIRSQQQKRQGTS
Sequence of Mitogen-activated protein kinase kinase kinase 8 (Homo sapiens) (P41279 whole entry): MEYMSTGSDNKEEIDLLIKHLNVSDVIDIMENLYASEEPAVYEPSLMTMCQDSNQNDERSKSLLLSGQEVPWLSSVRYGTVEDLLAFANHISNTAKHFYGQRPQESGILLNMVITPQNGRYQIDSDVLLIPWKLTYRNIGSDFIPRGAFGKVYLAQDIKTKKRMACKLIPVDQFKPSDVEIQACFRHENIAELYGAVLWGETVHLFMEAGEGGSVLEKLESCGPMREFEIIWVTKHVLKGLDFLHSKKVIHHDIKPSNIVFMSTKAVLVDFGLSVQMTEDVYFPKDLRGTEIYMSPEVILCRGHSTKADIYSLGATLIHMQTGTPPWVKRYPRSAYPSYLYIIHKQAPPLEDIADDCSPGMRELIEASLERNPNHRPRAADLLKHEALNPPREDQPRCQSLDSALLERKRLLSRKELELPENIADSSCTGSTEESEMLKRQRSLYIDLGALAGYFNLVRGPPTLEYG

`O=C(Nc1ccc2c(c1)B(O)OC2)c1c(C(F)(F)F)ccc(Cl)c1F`: the inhibition entry in [1], in [3], in [5], in series [6], in [7] and in series [8] was “inactive” in each case. Besides, the inhibition entry (in series [9]; in series [10]; in [11]; in [12]; in the series filed under Homo sapiens; in series [13]) was “inactive” in each case. Also, the inhibition result in series [14], in series [15], in series [16], in series [17] and in series [19] was “inactive” each time. In addition, the Tmax in series [2] was determined as 4 h. In series [4], this compound showed a bioavailability of 71%. Moreover, at 30 mg/kg the inhibition in vivo in the series with Mus musculus was 68%. The half-life in series [18] is 7.85 h.

As usually defined, the Tmax is the time from dosing to the highest level. In general, bioavailability refers to dose-corrected exposure relative to a reference, in per cent. A higher bioavailability goes with good availability. The inhibition in vivo is the relative decrease from the control value, in per cent. The low end stands for a response near the control, the high end for a response far below the control.

Source of the values: ChEMBL document CHEMBL2440005, “Discovery and structure-activity relationships of 6-(benzoylamino)benzoxaboroles as orally active anti-inflammatory agents” (Bioorg Med Chem Lett, 2013).
